Assay results as given in patent US20100190755A1, “TETRACYCLINE COMPOUNDS FOR THE TREATMENT OF RHEUMATOID ARTHRITIS AND RELATED METHODS OF TREATMENT” (priority 2008, published 2010).
≈ marks a conversion by molar mass, not a printed value.

Legend:
[1] = tested on: E. coli ATCC25922 (tetracycline sensitive); experiment: E. coli MIC, broth micro-dilution per CLSI guidelines (Table 3); format: cell-based
[2] = tested on: collagen-induced arthritis (CIA) in male DBA/1 mice; experiment: Murine collagen-induced arthritis (CIA) model, Example 2; format: in vivo, mouse
Description: Four non-antibacterial analogues of minocycline (J, W, AF and AT) were synthesized and tested in the murine model of the disease, collagen-induced arthritis (CIA) (See supra). Male DBA/1 mice were immunized intradermally with 200 μg of bovine type II collagen and boosted with collagen three weeks later. Minocycline and four non-antibacterial minocycline derivatives were administered i.p. beginning after disease onset. Paw thickness was measured and animals were scored daily.
(§1) • 1. Male DBA/1 mice were immunized i.d. with an emulsion of 200 μg bovine type II collagen in Complete Freund's Adjuvant. • 2. On day 21, mice received i.d. boost of 100 μg collagen in Incomplete Freund's Adjuvant • 3. Compounds were administered i.p. daily for 7 days starting from disease onset (day 3-4 after boost). • 4. Foot swelling was measured by an engineering micrometer and disease severity was scored accordingly (1, erythema and mild swelling confined to the tarsal or ankle joint; 2, erythema and mild swelling extending from the ankle to the mid-foot; 3, erythema and moderate swelling extending from the ankle to the metatarsal joints; 4, erythema and severe swelling encompassing the ankle, foot, and digits). • 5. Change (Δ) of paw thickness=sum of paw thickness from 4 paws of a mouse (experimental)−sum of baseline paw thickness from 4 paws of the same mouse. • 6. % inhibition=cumulative A paw thickness (disease group−compound-treated group)/cumulative A paw thickness (disease group)

[3] = tested on: Protein synthesis (E. coli S30 Extract System); experiment: Protein synthesis inhibition, in vitro transcription/translation assay (E. coli S30 Extract System for Circular DNA); format: biochemical
[4] = tested on: collagen-induced arthritis (CIA) in male DBA/1 mice; experiment: CIA model, Example 3 (cumulative scores vs untreated controls); format: in vivo; settings: Mus musculus
Summary of the method: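 Immunised intradermally with bovine type II collagen in CFA and boosted at day 21 in IFA. After onset, tetracycline derivatives given daily i.p. or orally for 8 to 15 days. Daily visual inflammation scores (0–4 scale) and micrometer paw thickness summed into cumulative scores.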

E. coli 25922 = experiment: Antibacterial activity MIC, Gram- (Table 9); format: cell-based; settings: Escherichia coli, CAMHB, 35° C., approximately 18 hr
Summary of the method: (§2)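 MIC taken as lowest compound level preventing growth after about 18 h at 35 °C (ambient air), read by microplate reader with visual check. Fresh log-phase cultures were inoculated to about 5×10^5 CFU/ml final into CAMHB dilutions spanning 200 to 0.098 μg/ml, starting from a DMSO stock.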

[5] = tested on: cytokines (IL-1, IL-6, RANKL and MCP-1) and a matrix metalloproteinase (MMP-9); experiment: Paw extract biomarker ELISA, CIA mice: whole panel (statements in words); format: in vivo, mouse
Description: as §1
(§3) • 1. Paws were collected from mice after 5-7 days of dosing and dissected free of skin. • 2. The paws were then homogenized in ice-cold PBS (2 ml/4 paws/mouse) containing 1× protease inhibitor using a Polytron homogenizer. • 3. Debris and particles were removed from the homogenized samples by centrifugation. • 4. Liquid layers were collected for MMP-9, IL-1, IL-6, RANKL, MCP-1, and TNFα analysis using ELISA kits from R & D System.

S. aureus RN450 = experiment: Antibacterial activity MIC, Gram+ (Table 9); format: cell-based; settings: Staphylococcus aureus, CAMHB, 35° C., approximately 18 hr
Summary of the method: as §2

[6] = Pharmacokinetics in rats after i.v. and oral dosing; format: in vivo; settings: rat
Description: Pre-cannulated (jugular vein and carotid artery for i.v. group and carotid artery for oral group) male CD/IGS rats (approximately 250 g) were used. Rats were fasted overnight prior to dosing with access to food restored 2 hours after dosing. Rats were administered with approximately 0.25 mL compound (1 mg/kg dose) for i.v. route (via jugular vein over 20 seconds) or 0.5 mL solution (5 mg/kg dose) orally. Blood (300 μL) was collected in tubes with EDTA anticoagulant at various time points, centrifuged and plasma collected and stored frozen at −20° C. Animals were euthanized by CO2 following the final blood collection. Plasma was extracted (0.1% trifluoroacetic acid in 67% acetonitrile/33% water) and levels of compound quantified by HPLC/MS against a standard curve.

RANKL = experiment: Paw extract biomarker ELISA, CIA mice: RANKL; format: in vivo, mouse; settings: paw extracts from CIA mice
Description: as §1, §3

MCP-1 = experiment: Paw extract biomarker ELISA, CIA mice: MCP-1; format: in vivo, mouse; settings: paw extracts from CIA mice
Description: as §1, §3

IL-1 = experiment: Paw extract biomarker ELISA, CIA mice: IL-1; format: in vivo, mouse; settings: paw extracts from CIA mice
Description: as §1, §3

MMP-9 = experiment: Paw extract biomarker ELISA, CIA mice: MMP-9; format: in vivo, mouse; settings: paw extracts from CIA mice
Description: as §1, §3

IL-6 = experiment: Paw extract biomarker ELISA, CIA mice: IL-6; format: in vivo, mouse; settings: paw extracts from CIA mice
Description: as §1, §3

[7] = 25 mg/kg/day i.p., dosed after disease onset

COC(=O)c1cc(N(C)C)c2c(c1O)C(=O)C1=C(O)[C@]3(O)C(=O)C(C(N)=O)=C(O)C[C@@H]3C[C@@H]1C2 [Compound W]
anti-bacterial activity compared to minocycline [1]: no anti-bacterial activity | MIC ([1]; Escherichia coli, E. coli ATCC25922, cation-adjusted Mueller Hinton broth): > 64 µg/mL | % Inhibition (Change in Paw Thickness) AVG [2, 7]: 60% | % Inhibition (Clinical Score) AVG [2, 7]: 40% | EC50 in inflammation suppression in CIA mice ([2]; CIA mice, i.p. daily): 20 mg/kg/day i.p. | Change in Paw Thickness (mm) Mean ([2]; day 1 of dosing, 25 mg/kg/day i.p.): 0.71 mm | Change in Paw Thickness (mm) Mean ([2]; day 2 of dosing, 25 mg/kg/day i.p.): 0.41 mm | Change in Paw Thickness (mm) Mean ([2]; day 3 of dosing, 25 mg/kg/day i.p.): 0.46 mm | Change in Paw Thickness (mm) Mean ([2]; day 4 of dosing, 25 mg/kg/day i.p.): 0.56 mm | Change in Paw Thickness (mm) Mean ([2]; day 5 of dosing, 25 mg/kg/day i.p.): 0.51 mm | Change in Paw Thickness (mm) Mean ([2]; day 6 of dosing, 25 mg/kg/day i.p.): 0.45 mm | Change in Paw Thickness (mm) Mean ([2]; day 7 of dosing, 25 mg/kg/day i.p.): 0.35 mm | Change in Paw Thickness (mm) Mean ([2]; day 8 of dosing, 25 mg/kg/day i.p.): 0.60 mm | Effects on reduction of paw swelling and clinical score compared to either minocycline or methotrexate ([2]; murine CIA model): greater | joint inflammation when administered after disease onset ([2]; murine CIA model): inhibited joint inflammation | IC50 [3]: > 100 µM | inhibition in vivo at 6 mg/kg ([4]; Dose 6 mg/kg): 25% | inhibition in vivo at 12 mg/kg ([4]; Dose 12 mg/kg): 32% | inhibition in vivo at 25 mg/kg ([4]; Dose 25 mg/kg): 60% | MIC (E. coli 25922): > 64 µg/mL | inhibition of inflammatory/osteoclastic cytokines (MMP-9, IL-1, IL-6, MCP-1, RANKL) in vivo [5]: better than minocycline | MIC (S. aureus RN450): 4 µg/mL (≈ 8.47 µM) | bioavailability ([6]; male, CD/IGS, plasma, after oral dosing of 5 mg/kg, read-out: PK Parameters (Rat) % F, fraction of absorption): 52% | bio-available after oral dosing in rats ([6]; oral): bio-available | half-life ([6]; plasma, male CD/IGS rats, 1 mg/kg i.v. or 5 mg/kg oral, read-out: PK Parameters (Rat) T1/2 (converted)): 3 h | Percent level of Biomarker Tissue [c] Compared to Untreated Control, RANKL AVG (RANKL): 27% | Percent level of Biomarker Tissue [c] Compared to Untreated Control, MCP-1 AVG (MCP-1): 28% | Percent level of Biomarker Tissue [c] Compared to Untreated Control, IL-1 AVG (IL-1): 32% | Percent level of Biomarker Tissue [c] Compared to Untreated Control, MMP-9 AVG (MMP-9): 72% | Percent level of Biomarker Tissue [c] Compared to Untreated Control, IL-6 AVG (IL-6): 28%
